{"source": "patent US6960342B2", "about": "“Method for inhibiting pathogenic fungi in plants using Bacillus amyloliquefaciens” (National Taiwan University, priority 2002, dated 2005)", "format_in_all_cases": "in vivo", "key": {"Botrytis elliptica [1]": {"system": "Botrytis elliptica", "experiment": "Field trials, control of lily gray mold; disease severity", "conditions": "antagonist 1 × 10^5 cfu/ml or 100 ppm flusilazole, three applications, recorded 14 days after the last application, scale 0 to 4", "procedure": "Lily fields in Taipei and I-Lan counties were selected for this experiment. Suspensions of the B190 and Botrytis elliptica were adjusted to about 1×10^5 cfu/ml and 1×10^3 conidia/ml, respectively, before application. 100 ppm of flusilazole (37% Emulsion, Du Pont, USA) was used for comparison. After spraying B190 or flusilazole by sprayer (MS sprayer, Taiwan), 5 ml of the spore suspension of Botrytis elliptica was sprayed onto each 100-day-old lily plant. A total of three sprays at 10-day intervals were applied. Each treatment consisted of 100 plants with 4 replicates. Every replicate was planted on a plot, which was 30 m long and 2 m wide. All the treatments were arranged based on randomized complete block design. Two weeks after the last spray, disease severity was assessed and analyzed as above-mentioned."}, "Botrytis elliptica [2]": {"system": "Botrytis elliptica", "experiment": "B190 formulations on Botrytis elliptica infected lilies in greenhouse", "conditions": "B190 […] cfu/ml, 3 applications (10 days/interval), flusilazole 100 p.p.m., recorded ten days after the last application, scale 0 to 4", "procedure": "Bacillus amyloliquefaciens B190 was cultured in a flask containing 1% rice chaff and 99% de-ion water. The flask was then positioned on a rotary shaker located in an incubator. B190 was incubated at 25±5° C. for 3 days. Thereafter, the B190-containing solution was filtered for application in the following experiments.\nDifferent chemicals or adjuvants were added to the B190-containing filtrate for investigating their inhibitive capability on Botrytis elliptica infected lilies in greenhouse. The chemicals include 0.025% Ca(OH)2, 0.05% Na2CO3, 0.025% NH4NO3 and 0.025% K2HPO4. The adjuvants comprise 0.1% Tween 80 and 0.05% mineral oil.\nUnformulated B. amyloliquefaciens B190 and 100 p.p.m. flusilazole were used as controls. In addition, uninoculated and inoculated lily plants with B. elliptica were also included as controls. Applications of these treatments were carried out when flowering tissues reached 30 to 50 mm in diameter. Treatments were applied three times with intervals of 10 days. Thereafter, 5 ml of B. elliptica spore suspension (1×10^3 conidia/ml) was inoculated on lily plants except the uninoculated control. Each different treatment had four replicates, and 5 lily plants were applied in every replicate. All treatments were arranged in a randomized complete block design. After inoculating B. elliptica for ten days, disease severity was scored as described above."}, "Botrytis elliptica [3]": {"system": "Botrytis elliptica", "experiment": "B190 formulations on Botrytis elliptica infected lilies in field", "conditions": "B190 1 × 10^5 cfu/ml, 3 applications (10 days/interval), fourteen days after the last application, scale 0 to 4", "procedure": "Bacillus amyloliquefaciens B190 was cultured in a flask containing 1% rice chaff and 99% de-ion water. Then the flask was positioned on a rotary shaker located in an incubator. B190 was incubated at an ambient temperature of 25±5° C. for 3 days. Thereafter, the cultured B190 was collected by means of centrifugation (3000 rpm/10 minutes; Tomy CM-60 RN, Seiko, Japan). The pellet mixed with 1% (w/v) kaolin was used as a wettable powder (WP). The pellet mixed with 0.025% (v/v) heavy mineral oil and 0.1% Tween 80 was served as an emulsion (E).\nDifferent chemicals or adjuvants were added to the wettable powder, emulsion or B190-containing filtrate as described above for investigating their inhibitory ability on lilies in the field. These chemicals include 0.025% Ca(OH)2, 0.05% Na2CO3, 0.025% NH4NO3 and 0.025% K2HPO4. The adjuvants comprise 0.1% Tween 80 and 0.05% mineral oil.\nUnformulated B. amyloliquefaciens B190 and 100 p.p.m. flusilazole were used as controls. In addition, uninoculated and inoculated lily plants with B. elliptica were also included as controls. Applications of these treatments were carried out when flowering tissues reached 100 to 120 mm in diameter. Treatments were applied three times with intervals of 10 days. […] After inoculating B. elliptica for ten days, disease severity was scored as described above."}}, "data": [{"smiles": "C[Si](Cn1cncn1)(c1ccc(F)cc1)c1ccc(F)cc1", "note": "[Flusilazole, flusilazole]", "values": [{"measurement": "Disease severity", "setting": "Botrytis elliptica [1]; I-Lan", "result": 0.80, "unit": "b"}, {"measurement": "Disease severity", "setting": "Botrytis elliptica [1]; Taipei", "result": 0.31, "unit": "bc"}, {"measurement": "Disease severity", "setting": "Botrytis elliptica [2]", "result": 0.32, "unit": "ef"}, {"measurement": "Disease severity", "setting": "Botrytis elliptica [3]; I: two trials in I-Lan county", "result": 0.23, "unit": "cd"}, {"measurement": "Disease severity", "setting": "Botrytis elliptica [3]; II: two trials in NTU experimental farm", "result": 0.39, "unit": "bc"}]}]}
